In US20180280364A1, “PHARMACEUTICAL COMPOSITIONS OF SODIUM PICOSULFATE, MAGNESIUM OXIDE AND CITRIC ACID” (Hetero Labs Limited, priority 2017, published 2018):

Assay: Compatibility study of sodium picosulfate with citric acid
Format: physicochemical
Conditions: produced a wet mass with high known impurities
From the text: As sodium picosulfate is having sensitivity towards an acidic nature ingredient, there is a need to formulate the composition of sodium picosulfate not in direct contact with the citric acid.

O=S(=O)(O)Oc1ccc(C(c2ccc(OS(=O)(=O)O)cc2)c2ccccn2)cc1 [sodium picosulfate]
Compatibility / stability with citric acid: not compatible or stable with citric acid physically and chemically
